Consider 1 compound from US20090170830A1, “Tricyclic Beta-Secretase Inhibitors for the Treatment of Alzheimer's Disease” (priority 2005, published 2009).

This assay deals with T1, beta-secretase enzyme (BACE 1), soluble human protein (Homo sapiens, UniProt P56817).
T1 construct: soluble (transmembrane domain and cytoplasmic extension excluded) human protein; made in house
As to the kind of experiment: ECL assay: homogeneous end point electrochemiluminescence assay with biotinylated BACE substrate. Type of assay: biochemical. Particulars: pH 4.5, rt, 30 min, 10% DMSO, range bounds printed in mixed units (lower nM, upper μM). As to the method:
Enzyme inhibition may be determined as follows.
ECL Assay: A homogeneous end point electrochemiluminescence (ECL) assay is employed using a biotinylated BACE substrate. The Km of the substrate is greater than 100 μM and can not be determined due to the limit of solubility of the substrate. A typical reaction contains approximately 0.1 nM enzyme, 0.25 μM of the substrate, and buffer (50 mM NaOAc, pH 4.5, 0.1 mg/ml BSA, 0.2% CHAPS, 15 mM EDTA and 1 mM deferoxamine) in a total reaction volume of 100 μl. The reaction proceeds for 30 min and is then stopped by the addition of 25 μL of 1 M Tris-HCl, pH 8.0. The resulting enzymatic product is assayed by adding a ruthenylated antibody which specifically recognizes the C-terminal residue of the product. Streptavidin coated magnetic beads are added into the solution and the samples are subjected to M-384 (Igen Inc., Gaithersburg, Md.) analysis. Under these conditions, less than 10% of substrate is processed by BACE 1. The enzyme used in these studies is soluble (transmembrane domain and cytoplasmic extension excluded) human protein produced in a baculovirus expression system. To measure the inhibitory potency for compounds, 12 concentrations of inhibitors are prepared starting from 100 μM with three fold series dilution. Solutions of the inhibitor in DMSO are included in the reaction mixture (final DMSO concentration is 10%). […]

T1 sequence (P56817 46-457 limits assumed): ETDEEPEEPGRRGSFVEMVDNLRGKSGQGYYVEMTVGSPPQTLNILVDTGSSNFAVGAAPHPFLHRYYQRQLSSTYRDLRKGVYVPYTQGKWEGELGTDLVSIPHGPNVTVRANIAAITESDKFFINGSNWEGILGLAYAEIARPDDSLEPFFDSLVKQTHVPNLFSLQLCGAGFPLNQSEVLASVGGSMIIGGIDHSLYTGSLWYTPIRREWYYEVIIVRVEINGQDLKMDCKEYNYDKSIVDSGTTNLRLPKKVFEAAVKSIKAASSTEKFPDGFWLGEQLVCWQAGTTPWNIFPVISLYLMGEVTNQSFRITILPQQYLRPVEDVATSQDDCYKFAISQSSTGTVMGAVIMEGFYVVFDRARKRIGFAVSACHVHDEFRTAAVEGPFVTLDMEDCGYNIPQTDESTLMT

Turning to `CCc1cn2c3c(cc(-c4nnc([C@](C)(N)Cc5ccccc5)o4)cc13)N(C)S(=O)(=O)CC2` [Example 1, (2R)-2-[5-(7-ethyl-1-methyl-2,2-dioxido-3,4-dihydro-1H-[1,2,5]thiadiazepino[3,4,5-hi]indol-9-yl)-1,3,4-oxadiazol-2-yl]-1-phenylpropan-2-amine], the “IC50 in inhibiting the beta-secretase enzyme” value was 1 nM and 100000 nM.
